For one series, the target named is T1, CYP3A4 (Homo sapiens, UniProt P08684).
T1 construct: purchased BD Gentest (Woburn, Mass.)
The note with it: literature value, similar experimental set-up; cited from earlier work.

The next series has as its target T2, CYP3A5 (Homo sapiens, UniProt P20815).
T2 construct: purchased BD Gentest (Woburn, Mass.)
The settings on record: literature value, similar experimental set-up; cited from earlier work.

In another series the test system is H9c2 cells. The experiment in a line: Mitochondrial membrane potential (Δψm) dissipation, TMRM dye. The class given is cell-based. The note with it: Rattus norvegicus; H9c2 cells, TMRM dye. On the procedure: H9c2 cell line was purchased from American Tissue Type Collection (ATCC) (Manassas, Va.). The cells were cultured in low-glucose DMEM growth media (Cat No: 31600, Thermo Fisher Scientific, Waltham, Mass.) supplemented with 1.5 g/L sodium bicarbonate, 25 mM HEPES, 10% fetal bovine serum (FBS) (GE Healthcare, Singapore), 100 units/mL penicillin, 100 μg/mL streptomycin and 250 ng/mL amphotericin B in 75-cm^2 tissue-culture flasks at 37° C. in a humidified atmosphere of 5% CO2. Cells were fed every 2-3 days and sub-cultured once 70-80% confluency was achieved to prevent the loss of differentiation potential. For differentiation, H9c2 cells were seeded at a density of 100,000 cells/well in 12-well plates. The cells were maintained for 1 day in low-glucose high-serum growth media to allow for cell attachment. Subsequently, cells were differentiated using 1 μM ATRA.
Dissipation of Δψm by each test compound was measured using mitochondrial permeable dye, tetramethylrhodamine methyl ester perchlorate (TMRM) (Thermo Fisher Scientific, Waltham, Mass.). […] The media was aspirated, the cells were washed with PBS and fluorescence was measured at 557 nm excitation and 570 nm emission wavelengths. […] The media was aspirated and then the cells were treated with dronedarone and the dissipation of Δψm by AADs was measured as described.

Series [1] relates to chronic atrioventricular block dog. The series is described as follows: Paroxysmal atrial fibrillation model in chronic atrioventricular block dogs. The class given is in vivo. The protocol:
Experiments were performed using female beagle dogs weighing approximately 10 kg (n=4). Animals were obtained through Kitayama Labes Co., Ltd. (Nagano, Japan). All experiments were approved by the Toho University Animal Care and User Committee (No. 19-52-395) and performed according to the Guideline for the Care and Use of Laboratory Animals of Toho University.
The catheter ablation technique of atrioventricular node was employed as previously described^11,14. The dogs were anesthetized with pentobarbital sodium (30 mg/kg, i.v.). After intubation with a cuffed endotracheal tube, the respiration was controlled with room air using a volume-limited ventilator (SN-480-3; Shinano Manufacturing Co., Ltd., Tokyo, Japan). Tidal volume and respiratory rate were set at 20 mL/kg and 15 breaths/min, respectively. Heparin calcium (100 IU/kg, i.v.) was administered to prevent blood clotting. The surface lead II electrocardiogram was continuously monitored. A quad-polar electrodes catheter with a large tip of 4 mm (D7-DL-252; Cordis-Webster Inc., CA, USA) was inserted through the catheter sheath (FAST-CATH™ 406119; St. Jude Medical Daig Division, Inc., Minnetonka, Minn., USA) placed at the right femoral vein and positioned across the tricuspid valve under the guide of bipolar electrogram from the distal electrode pair. The optimal site for the atrioventricular node ablation; namely, the compact atrioventricular node, was determined on the basis of the intra-cardiac electrogram, of which a very small His deflection was recorded and atrial/ventricular voltage ratio was >2. The power source for the atrioventricular nodal ablation was obtained from an electrosurgical generator (MS-1500; Senko Medical Instrument Manufacturing Co., Ltd., Tokyo, Japan), which delivers continuous unmodulated radiofrequency energy at a frequency of 500 kHz. After determining the proper location, the radiofrequency energy of 20 W was delivered for 10 s from the tip electrode to an indifferent patch electrode positioned on the animal's back, which was continued then for 30 s if junctional ectopic complexes were induced. The endpoint of this procedure was the development of the complete atrioventricular block with an onset of stable idioventricular escaped rhythm. All surgical procedures described above were performed under the sterile condition.
The paroxysmal atrial fibrillation model was prepared as previously reported^12,13. More than 3 months after the induction of atrioventricular block, the dogs (n=4) were anesthetized with pentobarbital sodium (30 mg/kg, i.v.). After intubation with a cuffed endotracheal tube, the dogs were artificially ventilated with 0.5-1.5% isoflurane in oxygen using a volume-limited ventilator (SN-480-3; Shinano Manufacturing Co., Ltd.). Tidal volume and respiratory rate were set at 20 mL/kg and 15 breaths/min, respectively. The surface lead II electrocardiogram was obtained from the limb electrodes. […] An indwelling needle (Surflo® 18G; Terumo Corporation, Tokyo, Japan) was placed at the right femoral artery, through which the arterial blood pressure was measured.
Three sets of standard 6-French quad-polar electrodes catheter (Cordis-Webster Inc.) were used. First one was positioned at the high right atrium through the right femoral vein to electrically pace the sinus nodal area and to simultaneously obtain the right atrial electrogram. Second one was positioned in the esophagus via os to record to the left atrial electrogram. Third one was positioned at the inter-atrial septum of the right atrium through the left femoral vein to electrically induce paroxysmal atrial fibrillation as described below. The optimal sites of each catheter were determined by the temporal relationship between the bipolar atrial electrograms from the distal electrodes pair and P wave of the electrocardiogram. […]

Where [2] appears, read: high dose 3 mg/kg i.v., for 10-60 min.

T1 sequence (P08684 whole entry): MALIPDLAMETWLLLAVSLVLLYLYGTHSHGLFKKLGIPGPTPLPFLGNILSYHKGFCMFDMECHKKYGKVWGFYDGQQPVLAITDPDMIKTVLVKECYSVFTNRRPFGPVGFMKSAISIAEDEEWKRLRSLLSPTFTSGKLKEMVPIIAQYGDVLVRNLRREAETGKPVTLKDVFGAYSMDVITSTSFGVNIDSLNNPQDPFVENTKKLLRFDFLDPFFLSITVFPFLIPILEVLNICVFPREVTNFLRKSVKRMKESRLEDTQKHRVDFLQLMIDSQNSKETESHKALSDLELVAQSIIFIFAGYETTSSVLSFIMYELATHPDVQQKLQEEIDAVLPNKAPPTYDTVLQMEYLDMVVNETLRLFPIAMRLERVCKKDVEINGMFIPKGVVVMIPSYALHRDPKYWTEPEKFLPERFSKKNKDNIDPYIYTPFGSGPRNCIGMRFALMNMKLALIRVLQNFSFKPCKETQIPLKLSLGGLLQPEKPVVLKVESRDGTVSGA
T2 sequence (P20815 whole entry): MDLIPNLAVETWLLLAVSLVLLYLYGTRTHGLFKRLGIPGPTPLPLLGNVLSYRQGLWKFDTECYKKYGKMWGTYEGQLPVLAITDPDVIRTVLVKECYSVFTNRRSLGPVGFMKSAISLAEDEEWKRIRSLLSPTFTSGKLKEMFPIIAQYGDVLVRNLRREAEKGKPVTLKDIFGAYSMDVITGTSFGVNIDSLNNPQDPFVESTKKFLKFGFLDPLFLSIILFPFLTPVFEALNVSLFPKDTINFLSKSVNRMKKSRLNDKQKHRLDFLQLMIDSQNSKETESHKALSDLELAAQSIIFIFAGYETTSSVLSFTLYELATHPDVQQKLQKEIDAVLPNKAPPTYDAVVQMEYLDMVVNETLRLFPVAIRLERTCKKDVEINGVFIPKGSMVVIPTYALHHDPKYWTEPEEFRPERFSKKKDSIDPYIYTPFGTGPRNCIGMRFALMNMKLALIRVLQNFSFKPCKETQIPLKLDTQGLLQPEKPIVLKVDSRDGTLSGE

As to `CCCCc1oc2ccc(NS(C)(=O)=O)cc2c1C(=O)c1ccc(OCCCN(CCCC)CCCC)cc1.Cl` [Dronedarone], the “CLint CYP3A4 reported by Hong et al” value on CYP3A4 is 6.442 µL/min/pmol. The “CLint CYP3A5 reported by Hong et al” value on CYP3A5 is 2.604 µL/min/pmol. In the series on H9c2 cells, half-maximal inhibition (IC50) required 500 nM.

As for `Cl.[2H]c1c(NS(C)(=O)=O)c([2H])c2c(C(=O)c3ccc(OCCCN(CCCC)CCCC)cc3)c(CCCC)oc2c1[2H]` [Poyendarone, Methanesulfonamide, N-(2-butyl-3-(4-(3-(dibutylamino)propoxy)benzoyl)-1-benzo(4,6,7-d3)-furan-5-yl)hydrochloride], the “lethal ventricular arrhythmias or hemodynamic collapse” value in series [1] (0.3 and 3 mg/kg i.v., experimental period) is “No animals exerted any lethal ventricular arrhythmias or hemodynamic collapse leading to their death”. In series [1] (20 min after 3 mg/kg, pre-drug control 6.9 s), the “duration of atrial fibrillation after burst pacing (typical tracing)” value was 1.8 s. For the same compound, in series [1] (high dose 3 mg/kg i.v.), the “effect on AERP(CL200)” value is given as “no significant change”; the “effect on VERP(CL400)” value is on record as “no significant change”; the “effect on cycle length of atrial fibrillation” value is on record as “tended to be prolonged, which did not achieve statistical significance”; the “effect on mean blood pressure” value was “hardly altered”. In series [1] (high dose 3 mg/kg i.v.), the “effect on sinoatrial rate” value is “hardly altered”. In series [1] (high dose 3 mg/kg i.v., at 10 min), the “effect on IACT(CL300)” value was “prolonged”. Also, the “effect on IACT(CL400)” value in series [1] (high dose 3 mg/kg i.v., at 10 min and for 30-60 min) was “prolonged”. Besides, in series [1] (setting [2]), the “effect on AERP(CL300)” value is recorded as “prolonged”, the “effect on AERP(CL400)” value is “prolonged”, the “effect on IACT(CL200)” value is “prolonged” and the “effect on duration of atrial fibrillation” value is “shortened”. For the same compound, in series [1] (low dose 0.3 mg/kg i.v.), the “effect on AERP(CL200)” value is recorded as “no significant change”, the “effect on AERP(CL300)” value is reported as “no significant change”, the “effect on IACT(CL200)” value was “did not alter” and the “effect on IACT(CL300)” value was “did not alter”. Further, in series [1] (low dose 0.3 mg/kg i.v.), the “effect on IACT(CL400)” value is recorded as “did not alter”, the “effect on VERP(CL400)” value was “no significant change”, the “effect on cycle length of atrial fibrillation” value is recorded as “did not alter” and the “effect on duration of atrial fibrillation” value was “did not alter”. In series [1] (low dose 0.3 mg/kg i.v.), the “effect on mean blood pressure” value was “hardly altered” and the “effect on sinoatrial rate” value was “hardly altered”. Besides, in series [1] (low dose 0.3 mg/kg i.v., at 20 min), the “effect on AERP(CL400)” value is “prolonged”.

Values taken from patent publication US20220267288A1, “CARDIAC THERAPEUTIC” (priority 2019, published 2022).
